In patent US20230192683A1, “FUSED RING COMPOUNDS, PREPARATION METHOD THEREFOR, PHARMACEUTICAL COMPOSITIONS AND USE THEREOF” (priority 2020, published 2023):
Where a name gives a salt, the structure may show the parent alone. Marks after values point to notes of the source that are not given here.

Columns and labels:
[1] = target: T1, human SSTR4 (Homo sapiens, UniProt P31391); assay: cell-based human SSTR4 cAMP assay (agonist activity); conditions: SSTR4, EC50 (nM), Flp-In-CHO-SSTR4 stable pool, Forskolin-stimulated cAMP
T1 construct: expressed in transfected cells
Method: Purpose of test: A cell-based human SSTR4 cAMP assay was used to determine the agonistic effect of the test compound on an SSTR 4 receptor.
Cell culture and reagent preparation: cell line: Flp-In-CHO-SSTR4 stable pool; complete medium: Ham’s F-12 K + 10% FBS + 1 × penicillin-streptomycin (PS) + 600 µg/ml hygromycin B; cell seeding medium: Ham’s F-12K + 10% FBS; assay buffer: 1 × HBSS + 20 mM HEPES + 0.1%BSA + 500 uM IBMX.
The Flp-In-CHO-SSTR 4 stable pool cell line was cultured in a complete medium at 37° C., 5% CO2 until a confluency of 70% to 90%.
After TrypLE digestion, the cells were resuspended in the seeding medium and seeded in a 384-well cell culture plate (384 PE culture plate), with 7,000 cells per well, and were cultured overnight at 37° C., 5% CO2.
The cell culture plate was taken out, inverted at 200 g at room temperature for 5 s to remove the medium, then quickly filled with 15 µl of an experimental buffer to each experimental well, and centrifuged at 200 g at room temperature for 5 s.
2.5 µl of the 8x compound working solution diluted in step 3 was added to corresponding test wells, which were centrifuged at 200 g for 5 s at room temperature, and incubated at 37° C. for 10 min.
A 4 uM Forskolin working solution (8x) was prepared.
The cell plate was taken out and equilibrated to room temperature, then filled with 2.5 µl of the 8x Forskolin working solution prepared in step 6 to corresponding test wells, followed by RT at 200 g for 5 s, and left to stand at 37° C. for 30 min.
A Eu-cAMP tracer and Uliaght-anti-cAMP were freeze-thawed, the Eu-cAMP tracer was diluted 50-fold with a detection buffer, and the Uliaght-anti-cAMP was dilutd 150-fold.
10 µl of the Eu-cAMP tracer was added to all experimental wells, then 10 µl of the detection buffer was added to NC wells, and 10 µl of the Uliaght-anti-cAMP was added to the remaining experimental wells.
The reaction plate was centrifuged at 200 g for 30 s at room temperature, and after standing at 25° C. for 1 h, data was collected using Envision.
Compound EC50 was calculated using a GraphPad nonlinear fitting formula: […]
X: Compound concentration log value; Y: HTRF ratio

[2] = metabolic stability in male rat liver microsomes; conditions: pH 7.4
Method: (§1) Metabolic degradation of a test compound was analyzed using pooled human liver microsomes and male rat liver microsomes, respectively, at 37° C.
(§2) After pre-incubation at 37° C. for 5 min, NADPH (5 mM, 60 µL) was added to initiate a reaction. A fixed volume of the reaction mixture (30 µL) was sampled into the solution at fixed time points (0, 5, 15, 30, 60 min) to quench the reaction. After centrifugation (4000 rpm, 15 min), the supernatant (100 µL) was mixed with distilled water (100 µL) and then subjected to LC-MS/MS analysis to test the amount of the compound. A half-life was calculated using a first-order reaction kinetic equation (Ct = C0 × e^-ket, T½ = Ln2/ke).

[3] = metabolic stability in pooled human liver microsomes; conditions: pH 7.4
Method: as §1, §2

[4] = test system: rat CFA pain model; assay: multi-dose oral pharmacodynamic study in rat CFA pain model (Von Frey PWT); type: in vivo
Method: The efficacy of Compound 1a and Compound 14 in the rat CFA pain model was evaluated using a mechanical allodynia method.
SD rats, 72 males, divided into 9 groups, were purchased from Beijing Vital River Laboratory Animal Technology Co., Ltd.
The experimental animals were adaptively reared for 3 to 7 days, and 8 of them were selected as a normal control group, and the other animals were injected with 50 µL of CFA in the center of the left hind paw for modeling. 24 hours after injection, the animals were tested for paw withdrawal threshold (PWT) basal values, and were divided into groups according to the basal values, which were solvent control group, indomethacin group, Compound 1a, 10 mpk group, Compound 1a, 30 mpk group, Compound 1a, 100 mpk group, Compound 14, 3 mpk group, Compound 14, 10 mpk group, and Compound 14, 30 mpk group, with 8 animals in each group. Subsequently, the animals were weighed and administered orally according to Table 6. All the animals were tested for paw withdrawal thresholds (PWT) using Von Frey 1, 2, and 4 hours after administration to further evaluate the efficacy of the compounds of the present invention.

[5] = test system: rat CFA pain model; assay: single-dose pharmacodynamic study in rat CFA pain model (Von Frey PWT); type: in vivo
Method: Each male SD rat (7-8 weeks old) was injected with 50 microliters of CFA in the center of the left hind paw. A PWT basal value test was conducted 24 hours after modeling, and the drugs were administered after randomization.
There were 8 animals in each group, and the animals were weighed and administered according to Table 4.
For all groups of animals, paw withdrawal thresholds (PWTs) of the animals were tested using Von Frey after 1 h and 3 h of single administration.

T1 sequence (P31391 whole entry): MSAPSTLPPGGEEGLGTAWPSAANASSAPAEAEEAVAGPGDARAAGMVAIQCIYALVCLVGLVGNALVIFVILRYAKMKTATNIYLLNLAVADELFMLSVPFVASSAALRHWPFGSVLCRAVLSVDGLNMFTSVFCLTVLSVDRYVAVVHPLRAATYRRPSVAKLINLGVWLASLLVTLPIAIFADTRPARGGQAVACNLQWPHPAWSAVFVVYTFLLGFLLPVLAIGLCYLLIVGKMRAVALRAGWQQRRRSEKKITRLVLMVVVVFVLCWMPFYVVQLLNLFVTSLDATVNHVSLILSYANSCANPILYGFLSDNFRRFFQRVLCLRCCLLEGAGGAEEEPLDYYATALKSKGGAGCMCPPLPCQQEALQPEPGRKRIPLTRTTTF

Row | Structure (SMILES) | EC50 [1] [nM] | other results
1 | CSc1cccn2c(C(C)(C)NC(=O)C3C4CNCC43C)ncc12 (single isomer, unassigned) [Compound 5-P1, 1-Methyl-N-(2-(8-(Methylthio)Imidazo[1,5-a]Pyridin-3-yl)Propan-2-yl)-3-Azabicyclo[3.1.0]Hexane-6-Carboxamide] | 1.25 | 
2 | CSc1cccn2c(C(C)(C)NC(=O)C3C4CNCC43C)ncc12 (single isomer, unassigned) [Compound 5-P2, 1-methyl-N-(2-(8-(methylthio)imidazo[1,5-a]pyridin-3-yl)propan-2-yl)-3-azabicyclo[3.1.0]hexane-6-carboxamide] | 0.41 | 
3 | CSc1cccn2c(C(C)(C)NC(=O)[C@H]3[C@@H]4CNC[C@@H]43)ncc12.Cl [Compound 1, (1R,5S,6R)-N-(2-(8-(Methylthio)Imidazo[1,5-a]Pyridin-3-yl)Prop-2-yl)-3-Azabicyclo[3.1.0]Hexane-6-Carboxamide Hydrochloride] | 0.15 | half-life at 1 µM ([2]; microsomes): > 3.11 h; half-life at 1 µM ([3]; microsomes): > 3.11 h
4 | CCSc1cccn2c(C(C)(C)NC(=O)[C@H]3[C@@H]4CNC[C@@H]43)ncc12 [Compound 6, (1R,5S,6R)-N-(2-(8-(Ethylthio)Imidazo[1,5-a]Pyridin-3-yl)Prop-2-yl)-3-Azabicyclo[3.1.0]Hexane-6-Carboxamide Hydrochloride] | 0.73 | 
5 | CC(C)Sc1cccn2c(C(C)(C)NC(=O)[C@H]3[C@@H]4CNC[C@@H]43)ncc12 [Compound 7, (1R,5S,6R)-N-(2-(8-(Isopropylthio)Imidazo[1,5-a]Pyridin-3-yl)Prop-2-yl)-3-Azabicyclo[3.1.0]Hexane-6-Carboxamide] | 3.29 | 
6 | CC(C)(NC(=O)[C@H]1[C@@H]2CNC[C@@H]21)c1ncc2c(SCc3ccccc3)cccn12 [Compound 9, (1R,5S,6R)-N-(2-(8-(Benzylthio)Imidazo[1,5-a]Pyridin-3-yl)Prop-2-yl)-3-Azabicyclo[3.1.0]Hexane-6-Carboxamide] | 3.42 | 
7 | CC(C)CSc1cccn2c(C(C)(C)NC(=O)[C@H]3[C@@H]4CNC[C@@H]43)ncc12 [Compound 10, (1R,5S,6R)-N-(2-(8-(Isobutylthio)Imidazo[1,5-a]Pyridin-3-yl)Prop-2-yl)-3-Azabicyclo[3.1.0]Hexane-6-Carboxamide] | 7.89 | 
8 | CSc1nc(C(C)(C)NC(=O)[C@H]2[C@@H]3CNC[C@@H]32)n2cccc(C)c12 [Compound 17, (1R,5S,6R)-N-(2-(8-Methyl-1-(Methylthio)Imidazo[1,5-a]Pyridin-3-yl)Propan-2-yl)-3-Azabicyclo[3.1.0]Hexane-6-Carboxamide] | 0.068 | half-life at 1 µM ([2]; rat liver microsomes): > 3.11 h; half-life at 1 µM ([3]; pooled human liver microsomes): > 3.11 h
9 | COc1ccc2c(c1)c(CC(=O)O)c(C)n2C(=O)c1ccc(Cl)cc1 [Indomethacin, reference compound] |  | Paw withdrawal threshold (PWT(g)) (average) 0 hours ([4]; 30 mg/kg oral group, 0 hours): 3.012 g; inhibition of CFA-induced mechanical allodynia (in words) ([4]; 30 mg/kg oral, 2 and 4 hours after administration, FIG. 2): significantly inhibited; Paw withdrawal threshold (PWT(g)) (average) 1 hour ([4]; 30 mg/kg oral, 1 hour): 4.461 g; Paw withdrawal threshold (PWT(g)) (average) 2 hours ([4]; 30 mg/kg oral, 2 hours): 7.486 ** g; Paw withdrawal threshold (PWT(g)) (average) 4 hours ([4]; 30 mg/kg oral, 4 hours): 6.813 ** g; Mechanical allodynia test (PWT (g), mean) Baseline ([5]; 30 mg/kg P.O. group, baseline 24 h after CFA, before administration): 3.554 g; Mechanical allodynia test (PWT (g), mean) 1 hour ([5]; 30 mg/kg P.O., 1 hour after single administration): 4.448 g; inhibition of CFA-induced mechanical allodynia (in words) ([5]; 30 mg/kg P.O., 3 hours after administration, FIG. 1): significantly inhibit; Mechanical allodynia test (PWT (g), mean) 3 hours ([5]; 30 mg/kg P.O., 3 hours after single administration): 10.360 **** #### g

More lines, main results first:

Row | EC50 [1] [nM] | Structure (SMILES) | other results
10 | 6.77 | CC(C)(CSc1ccccc1C(F)(F)F)NC(=O)[C@H]1[C@@H]2CNC[C@@H]21 [Compound 2, (1R,5S,6R)-N-(2-Methyl-1-((2-(Trifluoromethyl)Phenyl)Thio)Prop-2-yl)-3-Azabicyclo[3.1.0]Hexane-6-Carboxamide Formate] | 
11 | 10.5 | CC(C)(NC(=O)[C@H]1[C@@H]2CNC[C@@H]21)c1ncc2c(SC3CCCC3)cccn12 [Compound 3, (1R,SS,6R)-N(2-(8-(Cyclopentylthio)Imidazo[1,5-a]Pyridin-3-yl)Prop-2-yl)-3-Azabicyclo[3.1.0]Hexane-6-Carboxamide] | 
12 | 36.7 | CC(C)(NC(=O)[C@H]1[C@@H]2CNC[C@@H]21)c1ncc2c(Sc3nccs3)cccn12 [Compound 4, (1R,5S,6R)-N-(2-(8-(Thiazol-2-Ylsulfanyl)Imidazo[1,5-a]Pyridin-3-yl)Prop-2-yl)-3-Azabicyclo[3.1.0]Hexane-6-Carboxamide] | 
13 | 0.5 | CC(C)(NC(=O)[C@H]1[C@@H]2CNC[C@@H]21)c1ncc2c(SCC3CC3)cccn12 [Compound 8, (1R,5S,6R)-N-(2-(8-((Cyclopropylmethyl)Thio)Imidazo[1,5-a]Pyridin-3-yl)Propan-2-yl)-3-Azabicyclo[3.1.0]Hexane-6-Carboxamide] | 
14 | 2.47 | CC(C)(NC(=O)[C@H]1[C@@H]2CNC[C@@H]21)c1ncc2c(SCC3CCC3)cccn12 [Compound 11, (1R,5S,6R)-N-(2-(8-((Cyclobutylmethyl)Thio)Imidazo[1,5-a]Pyridin-3-yl)Propan-2-yl)-3-Azabicyclo[3.1.0]Hexane-6-Carboxamide] | 
15 | 1.83 | CC(C)(NC(=O)[C@H]1[C@@H]2CNC[C@@H]21)c1ncc2c(SC3CCC3)cccn12 [Compound 12, (1R,5S,6R)-N-(2-(8-(Cyclobutylthio)Imidazo[1,5-a]Pyridin-3-yl)Prop-2-yl)-3-Azabicyclo[3.1.0]Hexane-6-Carboxamide] | 
16 | 7.58 | CC(C)(NC(=O)[C@H]1[C@@H]2CNC[C@@H]21)c1ncc2c(SCC3CCCC3)cccn12 [Compound 13, (1R,5S,6R)-N-(2-(8-((Cyclopentylmethyl)Thio)Imidazo[1,5-a]Pyridin-3-yl)Propan-2-yl)-3-Azabicyclo[3.1.0]Hexane-6-Carboxamide] | 
17 | 0.046 | CSc1cccc2c(C(C)(C)NC(=O)[C@H]3[C@@H]4CNC[C@@H]43)n[nH]c12 [Compound 15, (1R,5S,6R)-N-(2-(7-(Methylthio)-1H-Indazol-3-yl)Propan-2-yl)-3-Azabicyclo[3.1.0]Hexane-6-Carboxamide] | half-life at 1 µM ([2]; rat liver microsomes): > 3.11 h; half-life at 1 µM ([3]; pooled human liver microsomes): > 3.11 h
18 | 1.25 | CSc1ccccc1C(C)(C)NC(=O)[C@H]1[C@@H]2CNC[C@@H]21 [Compound 16, (1R,5S,6R)-N-(2-(2-(Methylthio)Phenyl)Propan-2-yl)-3-Azabicyclo[3.1.0]Hexane-6-Carboxamide] | 
